Read-outs that look alike come from different tables or passages of the source. Marks after values point to notes of the source that are not given here.
Legend:
[1] = design: method as in doi:10.1016/j.molstruc.2021.131278; conditions: cited from earlier work
[2] = design: method as in doi:10.1016/j.molstruc.2021.131278; conditions: cited from earlier work; remark: listed apart in the source
[3] = design: method as in doi:10.1016/j.molstruc.2021.131278; conditions: cited from earlier work; remark: listed apart in the source
HaCaT cells = HaCaT cells integrity, acridine orange staining; type: cell-based, human; conditions: treatment at IC50 concentration for 24 h
Protocol: The cells were left to attach to 10 mm Ø glass slides for 24 h, at a confluence of 3 × 10^4 cells/glass slide. The slides were incubated for 10 min in acridine orange 1 µM in PBS 0.01M, and then the slides were investigated with an epifluorescence microscope Optika 510LD1 with 5 MP CCD cameras at 525 nm (green filter).

[4] = Scavenging of hydrogen peroxide by cyclic voltammetry on Au SPE; conditions: 0.5 mM H2O2, 0.5 mM compound, 0.1 M KCl
Protocol: The antioxidant properties were evaluated in terms of their activity against some free radicals, and other compounds reported in the literature, relevant for this purpose, such as: • ferric ions (Fe^3+)—used to test the reduction of the antioxidant character of the compounds; • DPPH˙ free radical– used to test the scavenging effect of the compounds on this radical; • hydrogen peroxide (H2O2)—used to test the scavenging effect of the synthesized molecules on this compound; • 2,2,6,6-tetramethylpiperidinyl-1-oxy (TEMPO)—used to test the scavenging effect of the synthesized molecules on this compound.
The anodic oxidation of H2O2 was used to determine the antioxidant character of compounds in different samples. Gold-based SPEs purchased from Dropsens were used as working electrode for monitoring the change in the oxidation peak of hydrogen peroxide due to the addition of different amounts of the novel compounds. The oxidation signal of H2O2 obtained at the sweep of the potential in the range from −0.5 to 1.2 V on the gold electrode can be observed in Figure A6. The scavenging abilities of compounds from 1 to 8 on […] are compared in this figure. The addition of an antioxidant, by its ability to consume H2O2, determines the decrease of anodic peak characteristic for H2O2. […]

SMILES | % of ABTS˙^+ Scavenged ([1]; 0.5 µg/mL) | % of ABTS˙^+ Scavenged ([1]; 0.75 µg/mL) | % of ABTS˙^+ Scavenged ([1]; 1 µg/mL) | % of ABTS˙^+ Scavenged ([1]; 1.5 µg/mL) | % of ABTS˙^+ Scavenged ([1]; 2.5 µg/mL) | IC50 ([1]; ABTS˙^+ scavenging) | % of DPPH˙ Scavenged ([2]; 1 µg/mL) | % of DPPH˙ Scavenged ([2]; 1.5 µg/mL) | % of DPPH˙ Scavenged ([2]; 2 µg/mL) | % of DPPH˙ Scavenged ([2]; 3 µg/mL) | % of DPPH˙ Scavenged ([2]; 5 µg/mL) | IC50 ([2]; DPPH˙ scavenging) | Chelation Capacity (%), ferrous ions ([3]; 50 µg/mL) | Chelation Capacity (%), ferrous ions ([3]; 100 µg/mL) | morphological effect on HaCaT cells, acridine orange staining (HaCaT cells) | scavenging effect on H2O2 [4]
C/C(=N\Nc1nc(C)cs1)c1ccc(O)cc1O [Compound 5a, Dihydroxy-Phenyl-Thiazol-Hydrazinium chloride] | 32.42 * % | 37.23 * % | 41.36 * % | 49.77 * % | 70.60 * % | 1.45 * µg/mL | 13.11 * % | 20.68 * % | 28.87 * % | 48.22 * % | 79.92 * % | 3.20 * µg/mL | 0.27 * % | 5.06 * % | – | –
Br.C/C(=N\Nc1nc(-c2ccc(O)c(C(N)=O)c2)cs1)c1ccc(O)cc1O [Compound 7a, (E)-1-(4-(3-carbamoyl-4-hydroxyphenyl)thiazol-2-yl)-2-(1-(2,4-dihydroxyphenyl)ethylidene)hydrazin-1-ium bromide] | – | – | – | – | – | – | – | – | – | – | – | – | – | – | induced a necroptotic aspect of the cells | –
C/C(=N\Nc1nc(-c2ccc(O)c(O)c2)cs1)c1ccc(O)cc1O.Cl [Compound 8a, (E)-2-(1-(2,4-dihydroxyphenyl)ethylidene)-1-(4-(3,4-dihydroxyphenyl)thiazol-2-yl)hydrazin-1-ium chloride] | – | – | – | – | – | – | – | – | – | – | – | – | – | – | induced nuclear fragmentation | highest scavenging effect
